Assay results taken from the supplement of paper PMC10627819.

Columns and labels:
Experiment in all cases: fitness (endpoint OD595 vs no drug) (fraction); higher = more growth
[1] = system: S. aureus DSM 20231
In short: (§1)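 Background-subtracted growth curves were the basis for fitness, taken as the optical density at entry into stationary phase over the robust mean of no-drug control wells. A cap of 1 was applied. The curves came from OD595 readings every 30 min for 14 h at 37 °C, in 384-well plates seeded at OD595 0.01 with 30 µl, or 55 µl for S. pneumoniae.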

[2] = system: S. aureus Newman
In short: as §1

[3] = system: B. subtilis 168
In short: as §1

[4] = system: S. pneumoniae D39V
In short: as §1

N[C@@H]1CONC1=O [Cycloserine D] + COc1c(N2C[C@@H]3CCCN[C@@H]3C2)c(F)cc2c(=O)c(C(=O)O)cn(C3CC3)c12 [Moxifloxacin]
fitness
Details	first compound 0.125 µg/mL	first compound 0.25 µg/mL	first compound 0.375 µg/mL	first compound 0.5 µg/mL	first compound 0.75 µg/mL	first compound 1.5 µg/mL
[1], partner 0.0075 µg/mL	–	–	0.827	–	0.85	0.844
[1], partner 0.015 µg/mL	–	–	0.713	–	0.712	0.687
[1], partner 0.03 µg/mL	–	–	0.575	–	0.586	0.564
[2], partner 0.0075 µg/mL	–	–	0.761	–	0.753	0.705
[2], partner 0.015 µg/mL	–	–	0.599	–	0.552	0.586
[2], partner 0.03 µg/mL	–	–	0.119	–	0.0631	0.06
[3], partner 0.0312 µg/mL	0.0481	0.0489	–	0.0432	–	–
[3], partner 0.0625 µg/mL	0.033	0.034	–	0.028	–	–
[3], partner 0.125 µg/mL	0.0229	0.0218	–	0.03	–	–
[3], partner 2 µg/mL	0.0539	0.0355	–	0.0265	–	–
[3], partner 4 µg/mL	0.0542	0.0318	–	0.0298	–	–
[3], partner 8 µg/mL	0.04	0.0429	–	0.0319	–	–

fitness, [1], one replicate
Details	first compound 0.375 µg/mL	first compound 0.75 µg/mL	first compound 1.5 µg/mL
partner 0.06 µg/mL	0.658	0.656	0.654
partner 0.12 µg/mL	0.483	0.518	0.483

N[C@@H]1CONC1=O [Cycloserine D] + COc1ccc(C[C@H](N)C(=O)N[C@H]2[C@@H](O)[C@H](n3cnc4c(N(C)C)ncnc43)O[C@@H]2CO)cc1 [Puromycin]
fitness
Details	first compound 0.125 µg/mL	first compound 0.25 µg/mL	first compound 0.375 µg/mL	first compound 0.5 µg/mL	first compound 0.75 µg/mL	first compound 1.5 µg/mL
[1], partner 0.39 µg/mL	–	–	≥ 1	–	≥ 1	≥ 1
[1], partner 0.78 µg/mL	–	–	≥ 1	–	≥ 1	≥ 1
[1], partner 1.56 µg/mL	–	–	1	–	≥ 1	≥ 1
[2], partner 0.39 µg/mL	–	–	≥ 1	–	≥ 1	≥ 1
[2], partner 0.78 µg/mL	–	–	0.999	–	0.977	0.989
[2], partner 1.56 µg/mL	–	–	≥ 1	–	0.998	≥ 1
[3], partner 0.39 µg/mL	0.958	0.889	–	0.955	–	–
[3], partner 0.78 µg/mL	0.931	0.894	–	0.968	–	–
[3], partner 1.56 µg/mL	0.959	0.929	–	0.915	–	–

fitness, [1], one replicate
Details	first compound 0.375 µg/mL	first compound 0.75 µg/mL	first compound 1.5 µg/mL
partner 3.12 µg/mL	≥ 1	≥ 1	0.977
partner 6.24 µg/mL	0.748	0.718	0.687

N[C@@H]1CONC1=O [Cycloserine D] + COc1cccc2c1C(=O)c1c(O)c3c(c(O)c1C2=O)C[C@@](O)(C(=O)CO)C[C@@H]3O[C@H]1C[C@H](N)[C@H](O)[C@H](C)O1 [Doxorubicin]
fitness
Details	first compound 0.125 µg/mL	first compound 0.25 µg/mL	first compound 0.375 µg/mL	first compound 0.5 µg/mL	first compound 0.75 µg/mL	first compound 1.5 µg/mL
[1], partner 0.625 µg/mL	–	–	0.942	–	0.898	0.905
[1], partner 1.25 µg/mL	–	–	0.867	–	0.891	0.953
[1], partner 2.5 µg/mL	–	–	0.861	–	0.841	0.774
[2], partner 0.625 µg/mL	–	–	0.796	–	0.809	0.827
[2], partner 1.25 µg/mL	–	–	0.797	–	0.797	0.799
[2], partner 2.5 µg/mL	–	–	0.748	–	0.75	0.771
[3], partner 0.625 µg/mL	0.976	0.959	–	0.921	–	–
[3], partner 1.25 µg/mL	0.919	0.939	–	0.891	–	–
[3], partner 2.5 µg/mL	0.754	0.704	–	0.722	–	–

N[C@@H]1CONC1=O [Cycloserine D] + C[C@@H]1O[C@@H]1P(=O)(O)O [Fosfomycin]
fitness
Details	first compound 0.125 µg/mL	first compound 0.25 µg/mL	first compound 0.375 µg/mL	first compound 0.5 µg/mL	first compound 0.75 µg/mL	first compound 1.5 µg/mL
[1], partner 0.781 µg/mL	–	–	0.724	–	0.703	0.764
[1], partner 1.562 µg/mL	–	–	0.586	–	0.577	0.597
[1], partner 3.124 µg/mL	–	–	0.451	–	0.471	0.481
[2], partner 0.781 µg/mL	–	–	0.64	–	0.623	0.669
[2], partner 1.562 µg/mL	–	–	0.516	–	0.518	0.514
[2], partner 3.124 µg/mL	–	–	0.165	–	0.201	0.172
[3], partner 1.562 µg/mL	0.71	0.666	–	0.679	–	–
[3], partner 3.124 µg/mL	0.608	0.583	–	0.592	–	–
[3], partner 6.248 µg/mL	0.479	0.504	–	0.453	–	–

N[C@@H]1CONC1=O [Cycloserine D] + C[n+]1ccc(-c2cc[n+](C)cc2)cc1 [Paraquat]
fitness
Details	first compound 0.125 µg/mL	first compound 0.25 µg/mL	first compound 0.375 µg/mL	first compound 0.5 µg/mL	first compound 0.75 µg/mL	first compound 1.5 µg/mL
[1], partner 1.25 µg/mL	–	–	0.976	–	0.978	0.964
[1], partner 2.5 µg/mL	–	–	≥ 1	–	0.977	≥ 1
[1], partner 5 µg/mL	–	–	0.977	–	0.983	0.965
[2], partner 1.25 µg/mL	–	–	0.962	–	0.871	0.899
[2], partner 2.5 µg/mL	–	–	0.979	–	0.966	0.984
[2], partner 5 µg/mL	–	–	0.938	–	0.969	0.93
[3], partner 1.25 µg/mL	0.939	0.919	–	0.958	–	–
[3], partner 2.5 µg/mL	0.911	0.905	–	0.899	–	–
[3], partner 5 µg/mL	0.842	0.787	–	0.746	–	–

N[C@@H]1CONC1=O [Cycloserine D] + Cc1cc(NS(=O)(=O)c2ccc(N)cc2)no1 [Sulfamethoxazol]
fitness
Details	first compound 0.125 µg/mL	first compound 0.25 µg/mL	first compound 0.375 µg/mL	first compound 0.5 µg/mL	first compound 0.75 µg/mL	first compound 1.5 µg/mL
[1], partner 1 µg/mL	–	–	≥ 1	–	≥ 1	0.93
[1], partner 2 µg/mL	–	–	≥ 1	–	0.913	0.982
[1], partner 4 µg/mL	–	–	≥ 1	–	0.929	≥ 1
[2], partner 1 µg/mL	–	–	0.997	–	0.979	0.949
[2], partner 2 µg/mL	–	–	≥ 1	–	≥ 1	≥ 1
[2], partner 4 µg/mL	–	–	≥ 1	–	≥ 1	≥ 1
[3], partner 1 µg/mL	0.941	0.933	–	0.868	–	–
[3], partner 2 µg/mL	0.869	0.896	–	0.929	–	–
[3], partner 4 µg/mL	0.951	0.931	–	≥ 1	–	–

fitness, one replicate
Details	first compound 0.125 µg/mL	first compound 0.25 µg/mL	first compound 0.375 µg/mL	first compound 0.5 µg/mL	first compound 0.75 µg/mL	first compound 1.5 µg/mL
[2], partner 8 µg/mL	–	–	≥ 1	–	≥ 1	≥ 1
[3], partner 0.5 µg/mL	0.939	0.993	–	0.977	–	–

N[C@@H]1CONC1=O [Cycloserine D] + Cc1ncc([N+](=O)[O-])n1CCO [Metronidazole]
fitness
Details	partner 0.625 µg/mL	partner 0.781 µg/mL	partner 1.25 µg/mL	partner 1.562 µg/mL	partner 2.5 µg/mL	partner 3.124 µg/mL
[1], first compound 0.375 µg/mL	≥ 1	–	≥ 1	–	≥ 1	–
[1], first compound 0.75 µg/mL	≥ 1	–	≥ 1	–	≥ 1	–
[1], first compound 1.5 µg/mL	≥ 1	–	≥ 1	–	≥ 1	–
[2], first compound 0.375 µg/mL	0.969	0.959	≥ 1	0.976	0.97	0.985
[2], first compound 0.75 µg/mL	0.929	≥ 1	≥ 1	0.972	0.961	0.988
[2], first compound 1.5 µg/mL	0.912	≥ 1	0.964	0.974	0.972	≥ 1
[3], first compound 0.125 µg/mL	0.948	–	0.913	–	0.937	–
[3], first compound 0.25 µg/mL	–	–	0.841	–	0.868	–
[3], first compound 0.5 µg/mL	0.933	–	0.921	–	0.973	–

N[C@@H]1CONC1=O [Cycloserine D] + Cn1nnc(-c2ccc(-c3ccc(N4C[C@H](CO)OC4=O)cc3F)cn2)n1 [Tedizolid]
fitness
Details	first compound 0.375 µg/mL	first compound 0.75 µg/mL	first compound 1.5 µg/mL
[1], partner 0.0625 µg/mL	0.95	0.942	0.923
[1], partner 0.125 µg/mL	0.738	0.802	0.827
[2], partner 0.0625 µg/mL	0.956	0.938	0.99
[2], partner 0.125 µg/mL	0.925	0.842	0.855

O=C(O[C@@H]1Cc2c(O)cc(O)cc2O[C@@H]1c1cc(O)c(O)c(O)c1)c1cc(O)c(O)c(O)c1 [EGCG] + CO/N=C(\C(=O)N[C@@H]1C(=O)N2C(C(=O)[O-])=C(C[N+]3(C)CCCC3)CS[C@H]12)c1csc(N)n1 [Cefepime]
fitness
Details	first compound 12.5 µg/mL	first compound 25 µg/mL	first compound 50 µg/mL
[1], partner 0.125 µg/mL	0.736	0.725	–
[1], partner 0.25 µg/mL	0.634	0.563	0.583
[1], partner 0.5 µg/mL	0.616	0.576	0.587
[2], partner 0.125 µg/mL	0.789	0.722	0.72
[2], partner 0.25 µg/mL	0.736	0.685	0.678
[2], partner 0.5 µg/mL	0.656	0.724	0.657
[4], partner 0.007 µg/mL	0.958	0.951	0.985
[4], partner 0.0078 µg/mL	≥ 1	0.874	0.939
[4], partner 0.014 µg/mL	0.998	0.987	0.998
[4], partner 0.0155 µg/mL	0.96	≥ 1	0.931
[4], partner 0.028 µg/mL	0.928	0.979	0.973
[4], partner 0.031 µg/mL	0.733	0.716	0.853

O=C(O[C@@H]1Cc2c(O)cc(O)cc2O[C@@H]1c1cc(O)c(O)c(O)c1)c1cc(O)c(O)c(O)c1 [EGCG] + CO[C@@]12[C@H](COC(N)=O)C3=C(C(=O)C(C)=C(N)C3=O)N1C[C@@H]1N[C@@H]12 [Mitomycin C]
fitness
Details	first compound 12.5 µg/mL	first compound 25 µg/mL	first compound 50 µg/mL
[1], partner 0.0156 µg/mL	0.587	0.553	–
[1], partner 0.0312 µg/mL	0.595	0.574	–
[1], partner 0.0625 µg/mL	0.507	0.483	–
[2], partner 0.0156 µg/mL	0.541	0.611	0.628
[2], partner 0.0312 µg/mL	0.547	0.528	0.488
[2], partner 0.0625 µg/mL	0.457	0.397	0.459
[4], partner 0.001075 µg/mL	0.877	0.9	0.926
[4], partner 0.002 µg/mL	0.77	–	0.777
[4], partner 0.00215 µg/mL	0.783	0.902	–
[4], partner 0.004 µg/mL	0.793	0.685	0.646
[4], partner 0.0043 µg/mL	–	0.747	0.881
[4], partner 0.008 µg/mL	0.422	0.379	0.285

CCCCCCCCCC(=O)N[C@H]1[C@H](Oc2c3cc4cc2Oc2ccc(cc2Cl)[C@@H](O[C@@H]2O[C@H](CO)[C@@H](O)[C@H](O)[C@H]2NC(C)=O)[C@@H]2NC(=O)[C@H](NC(=O)[C@@H]4NC(=O)[C@H]4NC(=O)[C@@H](Cc5ccc(c(Cl)c5)O3)NC(=O)[C@H](N)c3ccc(O)c(c3)Oc3cc(O)cc4c3)c3ccc(O)c(c3)-c3c(O[C@H]4O[C@H](CO)[C@@H](O)[C@H](O)[C@@H]4O)cc(O)cc3[C@@H](C(=O)O)NC2=O)O[C@H](CO)[C@@H](O)[C@@H]1O [Teicoplanin] + Cn1nnc(-c2ccc(-c3ccc(N4C[C@H](CO)OC4=O)cc3F)cn2)n1 [Tedizolid]
fitness, main component drawn
Details	first compound 0.1562 µg/mL	first compound 0.3125 µg/mL	first compound 0.625 µg/mL
[1], partner 0.0625 µg/mL	0.808	0.89	0.949
[1], partner 0.25 µg/mL	0.066	0.0756	0.1
[2], partner 0.0625 µg/mL	≥ 1	0.969	0.811
[2], partner 0.125 µg/mL	≥ 1	0.97	0.779
[2], partner 0.25 µg/mL	–	0.391	0.163

fitness, [2], one replicate, main component drawn
Details	first compound 0.62 µg/mL	first compound 1.24 µg/mL	first compound 2.48 µg/mL
partner 0.0625 µg/mL	0.883	0.789	0.474
partner 0.125 µg/mL	0.853	0.812	0.627
partner 0.25 µg/mL	0.447	0.402	0.361
